# Results from patent US20100240084A1, “USE OF THE PROTIEN MABA (FABG1) OF MYCOBACTERIUM TUBERCULOSIS FOR DESIGNING AND SCREENING ANTIBIOTICS” (priority 2002, published 2010).
# Tests used:
# protein MabA [1] = biological target: T1, protein MabA (Mycobacterium tuberculosis, UniProt P9WGT3); assay: Inhibition of the β-ketoacyl reductase activity of MabA after preincubation with antibiotic, NADPH and MnCl2; type: biochemical
# InhA [2] = biological target: T2, InhA (Mycobacterium tuberculosis, UniProt P9WGR1); settings: 100 μM ETH, in the presence of MnCl2 and NADH
# protein MabA [3] = biological target: T1, protein MabA; assay: MabA enzymatic kinetics test (NADPH oxidation at 340 nm)
# [4] = aqueous solutions; Constantinides & Steim, 1985; cited from earlier work
# InhA [5] = biological target: T2, InhA; settings: cited from earlier work
# [6] = tested on: CC(=O)CC(=O)SCCNC(=O)CCNC(=O)[C@H](O)C(C)(C)COP(=O)(O)OP(=O)(O)OC[C@H]1O[C@@H](n2cnc3c(N)ncnc32)[C@H](O)[C@@H]1OP(=O)(O)O; assay: purified protein, by the assay type
# [7] = tested on: CCCCCCC(=O)C(=O)SCCNC(=O)CCNC(=O)[C@H](O)C(C)(C)COP(=O)(O)OP(=O)(O)OC[C@H]1O[C@@H](n2cnc3c(N)ncnc32)[C@H](O)[C@@H]1OP(=O)(O)O; assay: purified protein, by the assay type
# [8] = tested on: CCCCCCCCCCC(=O)C(=O)SCCNC(=O)CCNC(=O)[C@H](O)C(C)(C)COP(=O)(O)OP(=O)(O)OC[C@H]1O[C@@H](n2cnc3c(N)ncnc32)[C@H](O)[C@@H]1OP(=O)(O)O; assay: purified protein, by the assay type
# β-ketoacyl reductase = settings: Kikuchi et al., 1989, cited from earlier work
# enoyl-reductase = settings: Kikuchi et al., 1989, cited from earlier work
# [9] = other: section 4.1, 25° C., 80 mM sodium phosphate, NADPH Km at 460 μM acetoacetyl-CoA, β-ketoacyl-CoA Km at 100 μM NADPH
# T1 sequence (P9WGT3 whole entry, looked up): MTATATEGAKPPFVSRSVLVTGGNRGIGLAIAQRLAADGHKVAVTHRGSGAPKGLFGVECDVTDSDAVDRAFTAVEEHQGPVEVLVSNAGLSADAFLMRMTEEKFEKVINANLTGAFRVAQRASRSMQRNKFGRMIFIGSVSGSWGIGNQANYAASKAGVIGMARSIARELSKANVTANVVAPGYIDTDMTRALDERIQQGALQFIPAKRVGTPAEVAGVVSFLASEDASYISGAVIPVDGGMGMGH
# T2 sequence (P9WGR1 whole entry, looked up): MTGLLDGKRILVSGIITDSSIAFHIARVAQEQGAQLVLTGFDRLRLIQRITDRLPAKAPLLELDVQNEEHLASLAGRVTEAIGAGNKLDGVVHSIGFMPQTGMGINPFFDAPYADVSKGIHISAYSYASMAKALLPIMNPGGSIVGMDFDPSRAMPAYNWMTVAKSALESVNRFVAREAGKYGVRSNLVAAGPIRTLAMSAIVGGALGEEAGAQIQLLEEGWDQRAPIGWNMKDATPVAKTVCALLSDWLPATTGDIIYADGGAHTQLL
compound,measurement,setting,value
"CCc1cc(C(N)=S)ccn1 [ETH, ethionamide]",effect on the activity of MabA,"protein MabA [1]; 100 μM ETH, conditions of inhibition by INH, same result as InhA (activity unchanged)",same result
same,effect on the activity of InhA,InhA [2],unchanged
NADPH,Km,"protein MabA [3]; read-out: Km of MabA, section 4.1, 25° C., 80 mM sodium phosphate, NADPH Km at 460 μM acetoacetyl-CoA, β-ketoacyl-CoA Km at 100 μM NADPH",39 µM
CCCCCCCCCCCCCCCC(=O)SCCNC(=O)CCNC(=O)[C@H](O)C(C)(C)COP(=O)(O)OP(=O)(O)OC[C@H]1O[C@@H](n2cnc3c(N)ncnc32)[C@H](O)[C@@H]1OP(=O)(O)O [palmitoyl-CoA],CMC (critical micellar concentration),[4],70 µM
CCCCCCCCCCCCCCCCCC(=O)SCCNC(=O)CCNC(=O)[C@H](O)C(C)(C)COP(=O)(O)OP(=O)(O)OC[C@H]1O[C@@H](n2cnc3c(N)ncnc32)[C@H](O)[C@@H]1OP(=O)(O)O [stearoyl-CoA],CMC (critical micellar concentration),[4],12 µM
NC(=O)C1=CN([C@@H]2O[C@H](COP(=O)(O)OP(=O)(O)OC[C@H]3O[C@@H](n4cnc5c(N)ncnc54)[C@H](O)[C@@H]3O)[C@@H](O)[C@H]2O)C=CC1 [NADH],Km,"InhA [5]; comparison value for InhA, read-out: Km of the protein InhA for its cofactor",8 µM
same,MabA activity on substitution of NADPH by NADH,protein MabA [3]; NADH at the same concentration as NADPH in the kinetics test,total loss of the activity
C/C=C/C(=O)SCCNC(=O)CCNC(=O)[C@H](O)C(C)(C)COP(=O)(O)OP(=O)(O)OC[C@H]1O[C@@H](n2cnc3c(N)ncnc32)[C@H](O)[C@@H]1OP(=O)(O)O [crotonoyl-CoA],activity of InhA in the presence of the 4-carbon substrate,"InhA [5]; even at 8 mM, Quémard et al., 1995",no activity
protein MabA (Mycobacterium tuberculosis H37Rv),Km,[6]; 25.0 °C,1530 ± 81 µM
same,kcat,[6]; 25.0 °C,1.9 ± 0.0 s⁻¹
same,Km,[6]; [9],1582 µM
same,Km,[7]; 25.0 °C,70 ± 8 µM
same,kcat,[7]; 25.0 °C,3.5 ± 0.0 s⁻¹
same,Km,[7]; [9],60 µM
same,Km,[8]; 25.0 °C,8.3 ± 0.8 µM
same,kcat,[8]; 25.0 °C,4.3 ± 0.2 s⁻¹
same,Km,[8]; [9],9 µM
"NNC(=O)c1ccncc1 [isoniazid, isonicotinic acid hydrazide]",inhibition of the activity of MabA compared with the control without INH,"protein MabA [1]; 100 μM INH, MabA 150 nM preincubated 2 hours with 100 μM NADPH and 1 μM MnCl2, acetoacetyl-CoA substrate",44±3%
same,inhibition at 2000 µM,"protein MabA [1]; 2 mM isoniazid, MabA 150 nM preincubated 2 hours with 100 μM NADPH and 1 μM MnCl2, acetoacetyl-CoA substrate",62 ± 6%
same,effect of INH on the activity of MabA in the absence of MnCl2,protein MabA [1]; absence of MnCl2 in the reaction,non-significant reduction
same,Ki,β-ketoacyl reductase,353 µM
same,inhibition of β-ketoacyl reductase,β-ketoacyl reductase; isoniazid 2 mM,93%
same,Ki,enoyl-reductase,5.5 mM
same,inhibition of enoyl-reductase,enoyl-reductase; isoniazid 2 mM,26%
